The values that follow come from patent US12077503B2, “Substituted cyclic amides and their use as herbicides” (FMC CORPORATION, priority 2015, dated 2024).

Holding throughout (assay type): in vivo
For experiment [1], the system named is barnyardgrass (Echinochloa crus-galli). The experiment is described as follows: Test B flooded paddy test. Conditions: Echinochloa crus-galli, Flood, 250 g ai/ha; scale of 0 to 100 where 0 is no effect and 100 is complete control; read-out: Barnyardgrass plant response rating. Put shortly: (§1)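 Percent control, visually estimated after 13–15 d in the greenhouse on a 0–100 basis, compares treated pots with untreated ones; compound was put into paddy water 3 cm above the soil when plants had two leaves.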

The subject of experiment [2] is sedge, umbrella (small-flower umbrella sedge, Cyperus difformis). The experiment is described as follows: Test B flooded paddy test. Conditions: Cyperus difformis, Flood, 250 g ai/ha; scale of 0 to 100 where 0 is no effect and 100 is complete control; read-out: Sedge, Umbrella plant response rating. Put shortly: as §1
Experiment [3] has as its system ducksalad (Heteranthera limosa). The experiment is described as follows: Test B flooded paddy test. The settings on record: Heteranthera limosa, Flood, 250 g ai/ha; scale of 0 to 100 where 0 is no effect and 100 is complete control; read-out: Ducksalad plant response rating. Put shortly: as §1
For another experiment, the system named is rice (Oryra sativa). The experiment is described as follows: Test B flooded paddy test. The settings on record: Oryza sativa, Flood, 250 g ai/ha; scale of 0 to 100 where 0 is no effect and 100 is complete control; read-out: Rice plant response rating. In short, it runs like this: as §1
Experiment [4] concerns ryegrass, Italian (Italian ryegrass, Lolium multiflorum). The experiment is described as follows: Test A postemergence. Conditions: Lolium multiflorum, post-emergence, 240 h, read-out: Plant response rating, Ryegrass, Italian. Put shortly: (§2)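 Ratings of 0 (no effect) to 100 (complete control) come from visual comparison with untreated controls roughly 10 d after treatment. Test chemicals, formulated in a non-phytotoxic solvent mixture with surfactant, were applied either as a preemergence directed soil spray on seeded soil or postemergence to one- to two-leaf plants 2 to 10 cm tall.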

In experiment [5] the test system is ragweed (common ragweed, Ambrosia elatior). The experiment is described as follows: Test A postemergence. Conditions: Ambrosia artemisiifolia, post-emergence, 240 h, read-out: Plant response rating, Ragweed. In short, it runs like this:
as §2

Experiment [6] deals with barnyardgrass (Echinochloa crus-galli). Description: Test A postemergence. The settings on record: Echinochloa crus-galli, post-emergence, 240 h, read-out: Plant response rating, Barnyardgrass. Put shortly:
as §2

The test system of experiment [7] is pigweed (Amaranthus retroflexus). Description: Test A postemergence. Conditions: Amaranthus retroflexus, post-emergence, 240 h, read-out: Plant response rating, Pigweed. Put shortly:
as §2

In experiment [8] the test system is giant foxtail (Setaria faberii). The experiment is described as follows: Test A postemergence. Conditions: Setaria faberi, post-emergence, 240 h, read-out: Plant response rating, Foxtail, Giant. In short, it runs like this:
as §2

The test system of experiment [9] is wheat (Triticum aestivum). Description: Test A postemergence. Conditions: Triticum aestivum, post-emergence, 240 h, Postemergence, 31 g ai/ha; visual injury after approx. 10 d; 0 to 100 scale, 0 no effect, 100 complete control; read-out: Plant response rating, Wheat. In short, it runs like this: as §2
In another experiment the test system is Kochia (Kochia scoparia). The experiment is described as follows: Test A postemergence. Conditions: Bassia scoparia, post-emergence, 240 h, read-out: Plant response rating, Kochia. Put shortly:
as §2

For another experiment, the system named is corn (Zea mays). The experiment is described as follows: Test A postemergence. Conditions: Zea mays, post-emergence, 240 h. In short, it runs like this: as §2
Experiment [10] has as its system Galium (catchweed bedstraw, Galium aparine). The experiment is described as follows: Test A postemergence. The settings on record: Galium, post-emergence, 240 h, read-out: Plant response rating, Galium. In short, it runs like this:
as §2

Experiment [11] relates to blackgrass (Alopecurus myosuroides). Description: Test A postemergence. Conditions: Alopecurus myosuroides, post-emergence, 240 h, read-out: Plant response rating, Blackgrass. In short, it runs like this: as §2
[12] abbreviates: 125 g ai/ha, postemergence, visual injury after approximately 10 d, 0 to 100 scale (0 no effect, 100 complete control).
[13] abbreviates: Postemergence, 31 g ai/ha, visual injury after approx. 10 d, 0 to 100 scale, 0 no effect, 100 complete control.

As for `Cc1cc([C@H]2CN(C)C(=O)[C@@H]2C(=O)Nc2ccccc2F)cc(C)c1C` [Compound 797], the pest or weed control at 250 g/ha in [1] came out at 90%; in experiment [2], 0%; in experiment [3], 90%; in the experiment on rice (Oryra sativa), 25%. Moreover, the pest or weed control at 125 g/ha in experiment [4] (setting [12]) worked out at 40%; in experiment [5] (setting [12]), 0%; in [6] (setting [12]), 90%; in [7] (setting [12]), 20%; in experiment [8] (setting [12]) it was 90%; with Kochia (Kochia scoparia) (setting [12]), 0%. Besides, the pest or weed control at 125 g/ha in [10] (setting [12]) is 30%; in [11] (setting [12]) it was 0%. Also, the pest or weed control at 31 g/ha in experiment [4] (setting [13]) came out at 0%; in experiment [5] (setting [13]), 0%; in experiment [6] (setting [13]), 90%; in [7] (setting [13]), 0%; in [8] (setting [13]), 80%; with Kochia (Kochia scoparia) (setting [13]), 0%. Besides, the pest or weed control at 31 g/ha in experiment [10] (setting [13]) and in experiment [11] (setting [13]) was 0% each time. Besides, the plant injury at 31 g/ha in experiment [9] amounted to 0%. Further, the Corn plant response rating (crop injury, 0 = no effect, 100 = complete kill) at 125 g/ha with corn (Zea mays) (setting [12]) came to 70%. In addition, the Corn plant response rating (crop injury, 0 = no effect, 100 = complete kill) at 31 g/ha with corn (Zea mays) (setting [13]) came to 60%.
